Assay results as given in US20250282768A1 (Janssen Pharmaceutica NV, priority 2022, published 2025).

Each molecule was assayed on p-IKKa levels in L363 (NIK translocated multiple myeloma) cells (assay: Assay 2: Effect of compounds on p-IKKa levels in L363 (NIK translocated multiple myeloma) cells). Settings: Homo sapiens, L-363, 6 h, read-out: Assay 2 IC50 (nM), p-IKKa (Ser 176/180) in BAFF stimulated L363 cells with MG132, 6 h; average if tested more than once.
Assay type: cell-based
In short: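 Read-out is p-IKKa Ser176/180 by AlphaLISA SureFire in lysates. Cells were BAFF-primed (250 ng/ml) overnight or left unstimulated, then exposed 6 h at 37 °C to compound with MG132 (10 μM), 0.3% DMSO. IC50 from sigmoidal curve fit, normalized between stimulated and unstimulated controls.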
`Cc1nnc(C(C)Nc2nccc(-c3cccc(-c4cc([C@]5(O)CCN(C)C5=O)on4)n3)n2)o1` (stereo partly drawn) [Example 385, (3R)-3-Hydroxy-1-methyl-3-(3-(6-(2-((1-(5-methyl-1,3,4-oxadiazol-2-yl)ethyl)amino)pyrimidin-4-yl)pyridin-2-yl)isoxazol-5-yl)pyrrolidin-2-one] showed an IC50 of 50 to 500 nM. For `CN1CC[C@@](O)(c2cc(-c3cccc(-c4ccnc(N[C@H](CO)c5ccccc5)n4)n3)no2)C1=O` [Example 386, (R)-3-Hydroxy-3-(3-(6-(2-(((S)-2-hydroxy-1-phenylethyl)amino)pyrimidin-4-yl)pyridin-2-yl)isoxazol-5-yl)-1-methylpyrrolidin-2-one], the IC50 was 50 to 500 nM. `CN1CC[C@@](O)(c2cc(-c3cccc(-c4ccnc(N[C@@H](CO)c5ccccn5)n4)n3)no2)C1=O` [Example 387, (R)-3-Hydroxy-3-(3-(6-(2-(((R)-2-hydroxy-1-(pyridin-2-yl)ethyl)amino)pyrimidin-4-yl)pyridin-2-yl)isoxazol-5-yl)-1-methylpyrrolidin-2-one] was tested, and the IC50 was greater than 500 nM. In the case of `CN1CC[C@@](O)(c2cc(-c3cccc(-c4ccnc(N[C@H](CO)c5ccccn5)n4)n3)no2)C1=O` [Example 388, (R)-3-Hydroxy-3-(3-(6-(2-(((S)-2-hydroxy-1-(pyridin-2-yl)ethyl)amino)pyrimidin-4-yl)pyridin-2-yl)isoxazol-5-yl)-1-methylpyrrolidin-2-one], the IC50 is reported as 50 to 500 nM. Work on `CCC(Nc1nccc(-c2cccc(-c3cc([C@]4(O)CCN(C)C4=O)on3)n2)n1)c1ccn(C)n1` (stereo partly drawn) [Example 389, (3R)-3-Hydroxy-1-methyl-3-(3-(6-(2-((1-(1-methyl-1H-pyrazol-3-yl)propyl)amino)pyrimidin-4-yl)pyridin-2-yl)isoxazol-5-yl)pyrrolidin-2-one] yielded an IC50 of 50 to 500 nM. Molecule `CN1CC[C@@](O)(c2cc(-c3cccc(-c4ccnc(NC(c5ccccn5)C5CC5)n4)n3)no2)C1=O` (stereo partly drawn) [Example 390, (3R)-3-(3-(6-(2-((Cyclopropyl(pyridin-2-yl)methyl)amino)pyrimidin-4-yl)pyridin-2-yl)isoxazol-5-yl)-3-hydroxy-1-methylpyrrolidin-2-one] has an IC50 greater than 500 nM. `CCC(Nc1nccc(-c2cccc(-c3cc([C@]4(O)CCN(C)C4=O)on3)n2)n1)c1ccn(CC)n1` (stereo partly drawn) [Example 391, (3R)-3-(3-(6-(2-((1-(1-Ethyl-1H-pyrazol-3-yl)propyl)amino)pyrimidin-4-yl)pyridin-2-yl)isoxazol-5-yl)-3-hydroxy-1-methylpyrrolidin-2-one] gave an IC50 greater than 500 nM. Molecule `COc1cn(C)nc1C(C)Nc1nccc(-c2cccc(-c3cc([C@]4(O)CCN(C)C4=O)on3)n2)n1` (stereo partly drawn) [Example 392, (3R)-3-Hydroxy-3-(3-(6-(2-((1-(4-methoxy-1-methyl-1H-pyrazol-3-yl)ethyl)amino)pyrimidin-4-yl)pyridin-2-yl)isoxazol-5-yl)-1-methylpyrrolidin-2-one] has an IC50 greater than 500 nM. `C[C@@H](Nc1nccc(-c2cccc(-c3cc([C@]4(O)CCN(C)C4=O)on3)n2)n1)c1cn2ccccc2n1` [Example 393, (R)-3-Hydroxy-3-(3-(6-(2-(((R)-1-(imidazo[1,2-a]pyridin-2-yl)ethyl)amino)pyrimidin-4-yl)pyridin-2-yl)isoxazol-5-yl)-1-methylpyrrolidin-2-one] gave an IC50 of 50 to 500 nM. Work on `C[C@H](Nc1nccc(-c2cccc(-c3cc([C@]4(O)CCN(C)C4=O)on3)n2)n1)c1cn2ccccc2n1` [Example 394, (R)-3-Hydroxy-3-(3-(6-(2-(((S)-1-(imidazo[1,2-a]pyridin-2-yl)ethyl)amino)pyrimidin-4-yl)pyridin-2-yl)isoxazol-5-yl)-1-methylpyrrolidin-2-one] yielded an IC50 greater than 500 nM. With `CC(Nc1nccc(-c2cccc(-c3cc([C@]4(O)CCN(C)C4=O)on3)n2)n1)c1nnc2ncccn12` (stereo partly drawn) [Example 395, (3R)-3-(3-(6-(2-((1-([1,2,4]Triazolo[4,3-a]pyrimidin-3-yl)ethyl)amino)pyrimidin-4-yl)pyridin-2-yl)isoxazol-5-yl)-3-hydroxy-1-methylpyrrolidin-2-one] the IC50 was 50 to 500 nM. For `CN(C)C[C@H](Nc1nccc(-c2cccc(-c3cc([C@]4(O)CCN(C)C4=O)on3)n2)n1)c1ccccc1` [Example 396, (R)-3-(3-(6-(2-(((R)-2-(Dimethylamino)-1-phenylethyl)amino)pyrimidin-4-yl)pyridin-2-yl)isoxazol-5-yl)-3-hydroxy-1-methylpyrrolidin-2-one], the IC50 was greater than 500 nM. Work on `CN(C)C[C@@H](Nc1nccc(-c2cccc(-c3cc([C@]4(O)CCN(C)C4=O)on3)n2)n1)c1ccccc1` [Example 397, (R)-3-(3-(6-(2-(((S)-2-(Dimethylamino)-1-phenylethyl)amino)pyrimidin-4-yl)pyridin-2-yl)isoxazol-5-yl)-3-hydroxy-1-methylpyrrolidin-2-one] yielded an IC50 greater than 500 nM. Work on `CN1CC[C@@](O)(c2cc(-c3cccc(-c4ccnc(Nc5nccn5C)n4)n3)no2)C1=O` [Example 398, (R)-3-Hydroxy-1-methyl-3-(3-(6-(2-((1-methyl-1H-imidazol-2-yl)amino)pyrimidin-4-yl)pyridin-2-yl)isoxazol-5-yl)pyrrolidin-2-one] yielded an IC50 greater than 500 nM. `CN1CC[C@@](O)(c2cc(-c3cccc(-c4ccnc(Nc5cn(CCF)cn5)n4)n3)no2)C1=O` [Example 399, (R)-3-(3-(6-(2-((1-(2-Fluoroethyl)-1H-imidazol-4-yl)amino)pyrimidin-4-yl)pyridin-2-yl)isoxazol-5-yl)-3-hydroxy-1-methylpyrrolidin-2-one] was tested, and the IC50 was less than 50 nM. For `CCn1cc(Nc2nccc(-c3cccc(-n4cc([C@]5(O)CCN(C)C5=O)nn4)n3)n2)c(C)n1` [Example 402, (R)-3-(1-(6-(2-((1-Ethyl-3-methyl-1H-pyrazol-4-yl)amino)pyrimidin-4-yl)pyridin-2-yl)-1H-1,2,3-triazol-4-yl)-3-hydroxy-1-methylpyrrolidin-2-one], the IC50 was less than 50 nM. Work on `CN1CC[C@@](O)(c2cn(-c3cccc(-c4ccnc(Nc5cnn(CC(F)(F)F)c5)n4)n3)nn2)C1=O` [Example 403, (R)-3-Hydroxy-1-methyl-3-(1-(6-(2-((1-(2,2,2-trifluoroethyl)-1H-pyrazol-4-yl)amino)pyrimidin-4-yl)pyridin-2-yl)-1H-1,2,3-triazol-4-yl)pyrrolidin-2-one] yielded an IC50 of less than 50 nM. `CN1CC[C@@](O)(c2cc(-c3cccc(-c4ccnc(Nc5cnn6c5CCCC6)n4)n3)on2)C1=O` [Example 406, (R)-3-Hydroxy-1-methyl-3-(5-(6-(2-((4,5,6,7-tetrahydropyrazolo[1,5-a]pyridin-3-yl)amino)pyrimidin-4-yl)pyridin-2-yl)isoxazol-3-yl)pyrrolidin-2-one] was tested, and the IC50 was less than 50 nM. For `CN1CC[C@@](O)(c2cc(-c3cccc(-c4ccnc(Nc5cnn(C)c5Cl)n4)n3)on2)C1=O` [Example 407, (R)-3-(5-(6-(2-((5-Chloro-1-methyl-1H-pyrazol-4-yl)amino)pyrimidin-4-yl)pyridin-2-yl)isoxazol-3-yl)-3-hydroxy-1-methylpyrrolidin-2-one], the IC50 was less than 50 nM. `Cc1cc(Nc2nccc(-c3cccc(-c4cc([C@@]5(O)C(=O)N(C)CC5(F)F)on4)n3)n2)ccn1` [Example 408, (R)-4,4-Difluoro-3-hydroxy-1-methyl-3-(3-(6-(2-((2-methylpyridin-4-yl)amino)pyrimidin-4-yl)pyridin-2-yl)isoxazol-5-yl)pyrrolidin-2-one] gave an IC50 of less than 50 nM. `CN1CC(F)(F)[C@@](O)(c2cc(-c3cccc(-c4ccnc(Nc5cnn(C)c5Cl)n4)n3)no2)C1=O` [Example 409] showed an IC50 of less than 50 nM. `CCn1ccc(Nc2nccc(-c3cccc(-c4cc([C@]5(O)CCN(C)C5=O)on4)n3)n2)n1` [Example 410, (R)-3-(3-(6-(2-((1-Ethyl-1H-pyrazol-3-yl)amino)pyrimidin-4-yl)pyridin-2-yl)isoxazol-5-yl)-3-hydroxy-1-methylpyrrolidin-2-one] was tested, and the IC50 was less than 50 nM. Work on `CN1CC[C@@](O)(c2cc(-c3cccc(-c4ccnc(Nc5cc(OC(F)F)n(C)n5)n4)c3)no2)C1=O` [Example 412, (R)-3-(3-(3-(2-((5-(Difluoromethoxy)-1-methyl-1H-pyrazol-3-yl)amino)pyrimidin-4-yl)phenyl)isoxazol-5-yl)-3-hydroxy-1-methylpyrrolidin-2-one] yielded an IC50 of 50 to 500 nM. For `CN1CC[C@@](O)(c2cc(-c3cccc(-c4ccnc(Nc5cn(CC(F)F)nc5OC5CC5)n4)c3)no2)C1=O` [Example 413, (R)-3-(3-(3-(2-((3-Cyclopropoxy-1-(2,2-difluoroethyl)-1H-pyrazol-4-yl)amino)pyrimidin-4-yl)phenyl)isoxazol-5-yl)-3-hydroxy-1-methylpyrrolidin-2-one], the IC50 was 50 to 500 nM. `CN1CC[C@@](O)(c2cc(-c3cccc(-c4ccnc(Nc5cc(N)n(C)n5)n4)c3)no2)C1=O` [Example 414, (R)-3-(3-(3-(2-((5-Amino-1-methyl-1H-pyrazol-3-yl)amino)pyrimidin-4-yl)phenyl)isoxazol-5-yl)-3-hydroxy-1-methylpyrrolidin-2-one] was tested, and the IC50 was greater than 500 nM. In the case of `CN1CC[C@@](O)(c2cc(-c3cccc(-c4ccnc(Nc5cn(C)nc5N)n4)c3)no2)C1=O` [Example 415, (R)-3-(3-(3-(2-((3-Amino-1-methyl-1H-pyrazol-4-yl)amino)pyrimidin-4-yl)phenyl)isoxazol-5-yl)-3-hydroxy-1-methylpyrrolidin-2-one], the IC50 is reported as greater than 500 nM. For `CN1CC[C@@](O)(c2cc(-c3cccc(-c4ccnc(Nc5cc6n(n5)CCNC6)n4)c3)no2)C1=O` [Example 416, (R)-3-Hydroxy-1-methyl-3-(3-(3-(2-((4,5,6,7-tetrahydropyrazolo[1,5-a]pyrazin-2-yl)amino)pyrimidin-4-yl)phenyl)isoxazol-5-yl)pyrrolidin-2-one], the IC50 was greater than 500 nM. `CN1CC[C@@](O)(c2cc(-c3cccc(-c4ccnc(N5CCn6nc(N)cc6C5)n4)c3)no2)C1=O` [Example 417, (R)-3-(3-(3-(2-(2-Amino-6,7-dihydropyrazolo[1,5-a]pyrazin-5(4H)-yl)pyrimidin-4-yl)phenyl)isoxazol-5-yl)-3-hydroxy-1-methylpyrrolidin-2-one] showed an IC50 greater than 500 nM.
